Measured values published in patent US20050249787A1, “Methods and compositions for reducing oxidative stress in an animal” (Nestec SA, priority 2004, published 2005).
Marks after values point to notes of the source that are not given here.

How the values were obtained:
[1] = dog, in vivo
Procedure: Three groups of twelve dogs (mixed breed Alaskan sled dogs (husky pointer crosses)) were fed commercially available Pro Plan® Performance chicken and rice formula dog food as a basal diet, and each group was fed either: a placebo consisting of about 0.5 g maltodextrin, about 2 mg astaxanthin, or about 400 mg Vitamin E (alpha-tocopherol). Pro Plan® dog food is available from Nestle Purina Pet Care Company in St. Louis, Missouri. The dogs were trained three times a week on an exercise wheel for a period of six weeks. On the sixth week, the dogs rested for four days and then exercised three days in a row. […] Plasma from the blood samples was analyzed for concentrations of malondialdehyde, F-2 isoprostanes, Vitamin E, creatine kinase activity as well as oxygen radical absorption capacity (ORAC). […]
The testing took place over a six day period. […] This sampling schedule was designed to examine changes in the parameters measured during exercise and during recovery. […] The vials were recovered from liquid nitrogen and stored at −70°C. until analyzed. Each plasma sample was analyzed for malondialdehyde concentration using a standard HPLC, F2-isoprostane concentration utilizing a mass spectrometer and standard ELISA, Vitamin E concentration utilizing a standard HPLC, and Oxidative Radical Absorbance Capacity (ORAC test kit, Oxford Co. […]

[2] = Antibody titers against an antigen (Example 5); format: in vivo, dogs; details: diet containing astaxanthin vs control animals
Procedure: (§1) To assess the effect of astaxanthin supplementation on immune function, dogs may be fed a diet containing astaxanthin and/or Vitamin E for 16 weeks. The amount of astaxanthin used may be 0, 1, 5, 10, 20, and 40 mg per animal per day. Various assays may be performed to assess immune function.
Control animals and animals fed a diet containing astaxanthin may also be assessed for the robustness of the immune response against an antigen. For example, antibody titers against an antigen may be measured for control animals and animals fed a diet containing astaxanthin.

[3] = Plasma total Oxidative Radical Absorptive Capacity (ORAC) in exercising sled dogs; format: in vivo; details: for ORAC (index of total anti-oxidant status) improvement by supplementation: any of the time periods measured
Procedure: (§2) Three groups of twelve dogs (mixed breed Alaskan sled dogs (husky pointer crosses)) were fed commercially available Pro Plan® Performance chicken and rice formula dog food as a basal diet, and each group was fed either: a placebo consisting of about 0.5 g maltodextrin, about 2 mg astaxanthin, or about 400 mg Vitamin E (alpha-tocopherol). Pro Plan® dog food is available from Nestle Purina Pet Care Company in St. Louis, Missouri. The dogs were trained three times a week on an exercise wheel for a period of six weeks. On the sixth week, the dogs rested for four days and then exercised three days in a row. Blood samples were collected before exercise on day one, immediately after exercise on day three, and at 24 hours and 48 hours after exercise. Plasma from the blood samples was analyzed for concentrations of malondialdehyde, F-2 isoprostanes, Vitamin E, creatine kinase activity as well as oxygen radical absorption capacity (ORAC).
(§3) All the dogs were maintained on the same basal diet (Purina Pro Plan® Performance chicken and rice formula) for one month prior to the onset and the entire duration of the experiment. Each dog was fed as an individual to maintain an optimal body condition score of 4/10.
(§4) Thirty-six sled dogs were housed at the Nestle Purina facility in Salcha, Alaska. The dogs were divided into three groups of 12 dogs so that each group was alike in age, sex and ability distribution. A treatment was randomly assigned to each group by drawing from a hat. Group “A” was assigned about 400 mg Vitamin E/day, group “B” was assigned about 2 mg Astaxanthin/day and group “C” was assigned about 500mg maltodextrin as a placebo. The people responsible for feeding, care, and training of the dogs were blind as to the identity of treatments until the completion of the study. Dogs were treated for six weeks before the onset of testing. They were also trained lightly for two sessions per week during this time period. Training sessions consisted of walking at 14 kilometers per hour for 2 hours in a 40-foot diameter circle tethered to a dog-walking wheel.
(§5) The testing took place over a six day period. On day one, pre-exercise blood samples were drawn from all the dogs. On day two, the dogs ran twelve km while pulling an all terrain vehicle (ATV) weighing 500 pounds. On day three, the dogs walked 16 miles on the dog wheel. On day four, the dogs again pulled the ATV for a distance of 12 kilometers. Immediately after exercise on day four, blood samples were drawn. Additional blood samples were drawn again at 24 hours and 48 hours after exercise. This sampling schedule was designed to examine changes in the parameters measured during exercise and during recovery. Samples were obtained by jugular venipuncture and collected into evacuated glass tubes containing sodium EDTA as an anticoagulant. Once collected they were kept on ice for not more than 10 minutes before they were centrifuged at 10,000 revolutions per minute (RPM) in 4°C. for a period of 10 minutes. The plasma was transferred into freezer vials where the dead space was replaced with gaseous nitrogen to decrease further oxidation during storage. The vials were then capped and immediately quenched in liquid nitrogen. The vials were recovered from liquid nitrogen and stored at −70°C. until analyzed. Each plasma sample was analyzed for malondialdehyde concentration using a standard HPLC, F2-isoprostane concentration utilizing a mass spectrometer and standard ELISA, Vitamin E concentration utilizing a standard HPLC, and Oxidative Radical Absorbance Capacity (ORAC test kit, Oxford Co.
(§6) F2 isoprostane and CK data was evaluated using a two way ANOVA for repeated measures. Post hoc comparisons were made using a student's t test corrected for repeated measures by the Bonneferroni method. Statistical significance was set at p<0.05 . The other data was also evaluated using ANOVA. The abbreviation “se” used with respect to the data in the tables below refers to standard error.

[4] = Osteoarthritis diet study, plasma and synovial fluid markers and gait (Example 6); format: in vivo, dogs; details: 12 weeks
Text: A diet supplemented with astaxanthin may be shown to reduce inflammation and associated pain in osteoarthritis. […] At 12 weeks of treatment, plasma and synovial fluid samples are taken from each animal and assayed for total antioxidant activity, and levels of malionaldehyde, prostaglandin, isoprostanes, MMPs and TIMPs. Additionally, the gait of the dogs may be assessed using standard force plate analyses.

F2-isoprostane = assay: Plasma F2-isoprostane (F2I) in exercising sled dogs; format: in vivo
Procedure: as §2, §3, §4, §5, §6

cataract formation = assay: In vivo cataract formation study, slit-lamp test (Example 4); design: species or system dogs; details: treatment with astaxanthin, optionally Vitamin E, lutein, zeaxanthin, zinc; vs control; two year study
Text: In a model study, 40 dogs could be chosen and randomly allocated to either the control group or to a treatment group receiving AAFCO recommended levels of antioxidants. The treatment group would receive astaxanthin and may also receive one or more of Vitamin E, lutein, zeaxanthin and zinc.

[5] = Delayed-type hypersensitivity skin reaction (Example 5); format: in vivo, dogs; details: diet containing astaxanthin vs control animals
Procedure: as §1
Delayed-type hypersensitivity may also be assessed in animals given a diet supplemented with astaxanthin. In these assays, control animals and animals fed a diet containing astaxanthin are given cutaneous injections of saline, a mitogen or a vaccine of distemper virus. The animals are then assessed to measure the skin reactions to mitogen, virus and control. In animals fed a diet containing astaxanthin, the skin reactions are more robust for virus and mitogen than that found in control animals.

creatine kinase = assay: Plasma creatine kinase (CK) in exercising sled dogs; format: in vivo
Procedure: as §2, §3, §4, §5, §6

malondialdehyde = assay: Plasma malondialdehyde (MDA) in exercising sled dogs (HPLC); format: in vivo
Procedure: as §2, §3, §4, §5, §6

NK cells = assay: Natural killer (NK) cell cytotoxicity from supplemented animals (Example 5); format: in vivo, dogs; details: diet containing astaxanthin vs control animals
Procedure: as §1
In another assay, natural killer (NK) cell cytotoxicity is assessed for NK cells isolated from animals that are fed a diet including astaxanthin supplementation.

[6] = system: peripheral blood mononuclear cells (PBMCs); assay: In vitro lymphoproliferation of stimulated PBMC (Example 5); format: cell-based, dogs; details: astaxanthin added to the media during stimulation, vs absence
[7] = system: canine lens epithelial cells; assay: Canine lens epithelial cells stressed with UV light (Example 3); format: cell-based; details: astaxanthin at physiological levels, UV light stress
Text: An in vitro experiment may be performed using canine lens epithelial cells supplemented with astaxanthin at physiological levels.

[8] = cited from earlier work

## CC1=C(/C=C/C(C)=C/C=C/C(C)=C/C=C/C=C(C)/C=C/C=C(C)/C=C/C2=C(C)C(=O)[C@@H](O)CC2(C)C)C(C)(C)C[C@H](O)C1=O [ATX, astaxanthin]
[1]
  Plasma Vitamin E concentration compared between treatment groups: no significant difference
[2]
  antibody titers against an antigen: higher antibody titers
[3]; 24 hour post
  Plasma total ORAC (mean +/− se): 5700
[3]; 48 hour post
  Plasma total ORAC (mean +/− se): 4800
[3]; Post-ex
  Plasma total ORAC (mean +/− se): 7460
[3]; Pre-ex
  Plasma total ORAC (mean +/− se): 7980
[3]
  ORAC (index of total anti-oxidant status) improvement by supplementation: not improved
[4]; 1, 5, 10, 20, or 40 mg per animal per day
  isoprostanes, total antioxidant activity and MMPs in plasma and synovial fluid: decrease
[4]; compared to controls
  gait, force plate analyses: significant improvement in gait
F2-isoprostane; 24 hour post
  Plasma F2 Isoprostane concentration (mean +/− se): 90
F2-isoprostane; 48 hour post
  Plasma F2 Isoprostane concentration (mean +/− se): 66
F2-isoprostane; Post-ex
  Plasma F2 Isoprostane concentration (mean +/− se): 52
F2-isoprostane; Pre-ex
  Plasma F2 Isoprostane concentration (mean +/− se): 167
F2-isoprostane; immediately post-exercise and at 24 hours post-exercise
  F2I values compared to the placebo group: lower
Cataract formation
  cataract formation and severity, slit-lamp test: control group has significantly more cataract formation
[5]
  skin reactions to virus and mitogen (delayed-type hypersensitivity): more robust
Creatine kinase; 24 hour post
  Plasma Creatine Kinase (mean +/− se): 171
Creatine kinase; 48 hour post
  Plasma Creatine Kinase (mean +/− se): 158
Creatine kinase; Post-ex
  Plasma Creatine Kinase (mean +/− se): 152
Creatine kinase; Pre-ex
  Plasma Creatine Kinase (mean +/− se): 109
Creatine kinase; all time periods but 24 hours post-exercise
  CK values compared with the Vitamin E group: lower
malondialdehyde; 24 hour post
  Plasma MDA (mean +/− se): 0.95
malondialdehyde; 24 hours post exercise
  Plasma malondialdehyde compared with placebo and Vitamin E groups: lower than either the placebo value or the Vitamin E value
malondialdehyde; 48 hour post
  Plasma MDA (mean +/− se): 1.44
malondialdehyde; Post-ex
  Plasma MDA (mean +/− se): 1.58
malondialdehyde; Pre to 24 hour post
  Changes in Plasma MDA over time, Change from Baseline: −0.485*
malondialdehyde; Pre to 48 hour Post
  Changes in Plasma MDA over time, Change from Baseline: −0.004
malondialdehyde; Pre to Post
  Changes in Plasma MDA over time, Change from Baseline: 0.135
malondialdehyde; Pre-ex
  Plasma MDA (mean +/− se): 1.45
NK cells
  NK cytotoxicity: significantly increased
[6]
  proliferation of PBMC: increases proliferation of cells significantly more
[7]
  cell death: significantly less cell death
  free radical formation and lipid peroxidation products: significantly reduce
[8]
  in vitro oxygen radical absorptive capacity relative to Vitamin E: 4 times

## Cc1c(C)c2c(c(C)c1O)CC[C@@](C)(CCC[C@H](C)CCC[C@H](C)CCCC(C)C)O2 [Vitamin E, alpha-tocopherol, reference compound]
[1]
  Plasma Vitamin E concentration compared between treatment groups: greatest
[3]; 24 hour post
  Plasma total ORAC (mean +/− se): 7590
[3]; 48 hour post
  Plasma total ORAC (mean +/− se): 4840
[3]; Post-ex
  Plasma total ORAC (mean +/− se): 5850
[3]; Pre-ex
  Plasma total ORAC (mean +/− se): 7480
[3]
  ORAC (index of total anti-oxidant status) improvement by supplementation: not improved
F2-isoprostane; 24 hour post
  Plasma F2 Isoprostane concentration (mean +/− se): 130
F2-isoprostane; 24 hour post-exercise
  F2I value compared to the placebo value: lower
F2-isoprostane; 48 hour post
  Plasma F2 Isoprostane concentration (mean +/− se): 78
F2-isoprostane; Post-ex
  Plasma F2 Isoprostane concentration (mean +/− se): 223
F2-isoprostane; Pre-ex
  Plasma F2 Isoprostane concentration (mean +/− se): 144
Creatine kinase; 24 hour post
  Plasma Creatine Kinase (mean +/− se): 184
Creatine kinase; 48 hour post
  Plasma Creatine Kinase (mean +/− se): 204
Creatine kinase; Post-ex
  Plasma Creatine Kinase (mean +/− se): 208
Creatine kinase; Pre-ex
  Plasma Creatine Kinase (mean +/− se): 139
malondialdehyde; 24 hour post
  Plasma MDA (mean +/− se): 1.44
malondialdehyde; 48 hour post
  Plasma MDA (mean +/− se): 1.44
malondialdehyde; Post-ex
  Plasma MDA (mean +/− se): 1.17
malondialdehyde; Pre to 24 hour post
  Changes in Plasma MDA over time, Change from Baseline: −0.071
malondialdehyde; Pre to 48 hour Post
  Changes in Plasma MDA over time, Change from Baseline: −0.069
malondialdehyde; Pre to Post
  Changes in Plasma MDA over time, Change from Baseline: −0.336*
malondialdehyde; Pre-ex
  Plasma MDA (mean +/− se): 1.51
malondialdehyde; during exercise
  malondialdehyde concentrations compared to the placebo group: decreased
